How the values were obtained:
[1] = target: T1, Melanocortin receptor 3 (Homo sapiens, UniProt P41968); experiment: Agonist activity against human melanocortin receptor hMC3R measured as percent cAMP accumulation at the concentration of 50 uM; type: functional
[2] = target: T2, Melanocortin receptor 5 (Homo sapiens, UniProt P33032); experiment: Agonist activity against human melanocortin receptor hMC5R measured as percent cAMP accumulation at the concentration of 50 uM; type: functional
[3] = target: T3, Melanocyte-stimulating hormone receptor (Homo sapiens, UniProt Q01726); experiment: Binding affinity towards human melanocortin receptor hMC1R by using radioligand NDP-MSH
Target sequence in this assay (Q01726 whole entry): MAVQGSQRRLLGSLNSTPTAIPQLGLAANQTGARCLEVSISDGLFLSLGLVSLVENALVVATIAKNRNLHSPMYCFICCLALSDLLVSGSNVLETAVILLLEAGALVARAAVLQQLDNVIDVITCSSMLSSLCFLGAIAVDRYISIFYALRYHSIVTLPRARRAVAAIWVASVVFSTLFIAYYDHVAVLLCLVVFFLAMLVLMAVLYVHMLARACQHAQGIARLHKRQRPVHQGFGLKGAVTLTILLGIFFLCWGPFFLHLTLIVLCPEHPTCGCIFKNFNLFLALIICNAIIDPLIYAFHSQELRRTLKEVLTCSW

[4] = target: T4, Melanocortin receptor 4 (Homo sapiens, UniProt P32245); experiment: Agonist activity against human melanocortin receptor hMC4R; type: functional
[5] = target: T4, Melanocortin receptor 4; experiment: Binding affinity towards human melanocortin receptor hMC4R by using radioligand NDP-MSH; not determined
[6] = target: T3, Melanocyte-stimulating hormone receptor; experiment: Agonist activity against human melanocortin receptor hMC1R; type: functional
Target sequence in this assay (Q01726 whole entry): as above

[7] = target: T4, Melanocortin receptor 4; experiment: Binding affinity towards human melanocortin receptor hMC4R by using radioligand NDP-MSH
[8] = target: T3, Melanocyte-stimulating hormone receptor; experiment: (§1) Agonist activity against human melanocortin receptor hMC1R at 50% maximum cAMP accumulation; type: functional
Target sequence in this assay (Q01726 whole entry): as above

[9] = target: T4, Melanocortin receptor 4; experiment: Percent inhibition of human melanocortin receptor hMC4R at the concentration of 50 uM
[10] = target: T1, Melanocortin receptor 3; experiment: Binding affinity towards human melanocortin receptor hMC3R by using radioligand NDP-MSH
[11] = target: T2, Melanocortin receptor 5; experiment: Binding affinity towards human melanocortin receptor hMC5R by using radioligand NDP-MSH
[12] = target: T3, Melanocyte-stimulating hormone receptor; experiment: Percent inhibition of human melanocortin receptor hMC1R at the concentration of 50 uM
Target sequence in this assay (Q01726 whole entry, looked up): as the sequence (Q01726 whole entry) above

[13] = target: T3, Melanocyte-stimulating hormone receptor; experiment: as §1; type: functional; remark: listed apart in the source
Target sequence in this assay (Q01726 whole entry, looked up): as the sequence (Q01726 whole entry) above

T2 sequence (P33032 whole entry): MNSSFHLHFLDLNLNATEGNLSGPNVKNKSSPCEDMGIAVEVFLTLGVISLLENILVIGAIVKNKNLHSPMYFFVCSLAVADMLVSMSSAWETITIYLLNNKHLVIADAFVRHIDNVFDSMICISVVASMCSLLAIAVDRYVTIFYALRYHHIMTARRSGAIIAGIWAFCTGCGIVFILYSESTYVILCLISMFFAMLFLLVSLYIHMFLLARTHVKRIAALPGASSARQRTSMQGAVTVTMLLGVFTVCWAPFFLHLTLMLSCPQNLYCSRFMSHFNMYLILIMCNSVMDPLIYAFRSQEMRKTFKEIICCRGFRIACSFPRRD
T4 sequence (P32245 whole entry): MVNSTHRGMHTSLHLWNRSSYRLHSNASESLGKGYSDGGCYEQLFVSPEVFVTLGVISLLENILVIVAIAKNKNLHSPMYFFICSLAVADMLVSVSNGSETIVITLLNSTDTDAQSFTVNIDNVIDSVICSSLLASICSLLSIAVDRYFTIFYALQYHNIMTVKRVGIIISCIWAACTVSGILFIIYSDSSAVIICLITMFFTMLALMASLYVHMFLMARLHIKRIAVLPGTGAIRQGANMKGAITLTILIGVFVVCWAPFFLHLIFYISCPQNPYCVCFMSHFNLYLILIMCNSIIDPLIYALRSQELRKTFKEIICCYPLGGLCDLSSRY
T1 sequence (P41968 whole entry): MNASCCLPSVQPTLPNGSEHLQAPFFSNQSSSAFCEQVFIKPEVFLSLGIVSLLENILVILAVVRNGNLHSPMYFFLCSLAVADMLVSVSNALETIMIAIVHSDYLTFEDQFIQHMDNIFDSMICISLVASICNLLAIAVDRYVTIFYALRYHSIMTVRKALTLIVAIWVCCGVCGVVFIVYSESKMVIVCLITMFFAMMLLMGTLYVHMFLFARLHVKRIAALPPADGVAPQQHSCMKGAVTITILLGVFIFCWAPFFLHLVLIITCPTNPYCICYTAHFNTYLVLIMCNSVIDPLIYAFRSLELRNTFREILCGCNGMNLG

Row | Structure (SMILES) | EC50 [4] | EC50 [6] | also measured
1 | CCCCC(=O)NC1(C(=O)N[C@H](Cc2ccccc2)C(=O)N[C@@H](CCCN=C(N)N)C(=O)N[C@@H](Cc2c[nH]c3ccccc23)C(=O)NCC(N)=O)CCc2c(cccc2N(C)C)C1 (single isomer, unassigned; isomer 2) | – | – | Accumulation [1]: 0%; Accumulation [2]: 24%
2 | CCCCC(=O)NC1(C(=O)N[C@H](Cc2ccccc2)C(=O)N[C@@H](CCCNC(=N)N)C(=O)N[C@@H](Cc2c[nH]c3ccccc23)C(=O)NCC(N)=O)CCc2c(Br)cccc2C1 (single isomer, unassigned; isomer 2) | 35 nM | – | IC50 [3]: 5100 nM; IC50 [5]: 105 nM
3 | CCCCC(=O)NC1(C(=O)N[C@H](Cc2ccccc2)C(=O)N[C@@H](CCCNC(=N)N)C(=O)N[C@@H](Cc2c[nH]c3ccccc23)C(=O)NCC(N)=O)CCc2c(cccc2N(C)C)C1 (single isomer, unassigned; isomer 1) | 2 nM | 940 nM | IC50 [3]: 25500 nM; IC50 [7]: 25 nM; EC50 [8]: 940 nM
4 | CCCCC(=O)NC1(C(=O)NC(Cc2ccccc2)C(=O)N[C@@H](CCCNC(=N)N)C(=O)N[C@@H](Cc2c[nH]c3ccccc23)C(=O)NCC(N)=O)CCc2c(C)cccc2C1 (single isomer, unassigned) | 35 nM | 1220 nM | –
5 | CCCCC(=O)NC1(C(=O)N[C@H](Cc2ccccc2)C(=O)N[C@@H](CCCN=C(N)N)C(=O)N[C@@H](Cc2c[nH]c3ccccc23)C(=O)NCC(N)=O)CCc2cccc(Br)c2C1 (single isomer, unassigned; isomer 2) | – | 2910 nM | inhibition [9]: 0%
6 | CCCC(=O)N[C@@]1(C(=O)N[C@H](Cc2ccccc2)C(=O)N[C@@H](CCCN=C(N)N)C(=O)N[C@@H](Cc2c[nH]c3ccccc23)C(=O)NCC(N)=O)CCc2ccccc2C1 (stereo in doubt; form 2) | 2940 nM | 5640 nM | –
7 | CCCCC(=O)NC1(C(=O)NC(Cc2ccccc2)C(=O)N[C@@H](CCCN=C(N)N)C(=O)N[C@@H](Cc2c[nH]c3ccccc23)C(=O)NCC(N)=O)CCc2cc(Br)ccc2C1 (single isomer, unassigned; form 2) [listing 2 of 2 here] | – | – | inhibition [9]: 50%
8 | CCCC(=O)N[C@@H](Cc1c[nH]cn1)C(=O)N[C@H](Cc1ccccc1)C(=O)N[C@@H](CCCN=C(N)N)C(=O)N[C@@H](Cc1c[nH]c2ccccc12)C(=O)NCC(N)=O | – | – | Accumulation [1]: 0%; Accumulation [2]: 0%
9 | CCCCC(=O)N[C@]1(C(=O)N[C@H](Cc2ccccc2)C(=O)N[C@@H](CCCN=C(N)N)C(=O)N[C@@H](Cc2c[nH]c3ccccc23)C(=O)NCC(N)=O)CCc2ccccc2C1 (stereo in doubt; form 1) | 45 nM | 830 nM | –
10 | CCCCC(=O)NC1(C(=O)N[C@H](Cc2ccccc2)C(=O)N[C@@H](CCCN=C(N)N)C(=O)N[C@@H](Cc2c[nH]c3ccccc23)C(=O)NCC(N)=O)CCc2c(Br)cccc2C1 (single isomer, unassigned; isomer 2) | – | – | inhibition [12]: 50%; Accumulation [1]: 0%; Accumulation [2]: 32%
11 | CCCCC(=O)NC1(C(=O)NC(Cc2ccccc2)C(=O)N[C@@H](CCCN=C(N)N)C(=O)N[C@@H](Cc2c[nH]c3ccccc23)C(=O)NCC(N)=O)CCc2cc(Br)ccc2C1 (single isomer, unassigned; form 1) [listing 1 of 2 here] | – | – | inhibition [9]: 60%
12 | CCCC(=O)N[C@@]1(C(=O)N[C@H](Cc2ccccc2)C(=O)N[C@@H](CCCN=C(N)N)C(=O)N[C@@H](Cc2c[nH]c3ccccc23)C(=O)NCC(N)=O)CCc2ccccc2C1 (stereo in doubt; form 1) | 290 nM | 4380 nM | –
13 | CCCCC(=O)NC1(C(=O)NC(Cc2ccccc2)C(=O)N[C@@H](CCCN=C(N)N)C(=O)N[C@@H](Cc2c[nH]c3ccccc23)C(=O)NCC(N)=O)CCc2ccc(Br)cc2C1 (single isomer, unassigned) | – | – | inhibition [12]: 0%; inhibition [9]: 40%
14 | CCCCC(=O)NC1(C(=O)N[C@H](Cc2ccccc2)C(=O)N[C@@H](CCCNC(=N)N)C(=O)N[C@@H](Cc2c[nH]c3ccccc23)C(=O)NCC(N)=O)CCc2c(cccc2N(C)C)C1 (single isomer, unassigned; isomer 2) | 16 nM | 1850 nM | IC50 [3]: 21700 nM; IC50 [7]: 150 nM; EC50 [8]: 1850 nM
15 | CCCCC(=O)NC1(C(=O)NC(Cc2ccccc2)C(=O)N[C@@H](CCCNC(=N)N)C(=O)N[C@@H](Cc2c[nH]c3ccccc23)C(=O)NCC(N)=O)CCc2c(cccc2OC)C1 (single isomer, unassigned) | 90 nM | 1480 nM | –
16 | CCCCC(=O)NC1(C(=O)NC(Cc2ccccc2)C(=O)N[C@@H](CCCNC(=N)N)C(=O)N[C@@H](Cc2c[nH]c3ccccc23)C(=O)NCC(N)=O)CCc2c(cccc2C(C)C)C1 (single isomer, unassigned) | 13 nM | 295 nM | –
17 | CCCCC(=O)NC1(C(=O)NC(Cc2ccccc2)C(=O)N[C@@H](CCCN=C(N)N)C(=O)N[C@@H](Cc2c[nH]c3ccccc23)C(=O)NCC(N)=O)CCc2cccc(Br)c2C1 (single isomer, unassigned) | – | 1710 nM | inhibition [9]: 0%
18 | CCCCC(=O)NC1(C(=O)N[C@H](Cc2ccccc2)C(=O)N[C@@H](CCCN=C(N)N)C(=O)N[C@@H](Cc2c[nH]c3ccccc23)C(=O)NCC(N)=O)CCc2c(cccc2N(C)C)C1 (single isomer, unassigned; isomer 1) | – | – | Accumulation [1]: 0%; Accumulation [2]: 0%

Second part, led by results:

Row | EC50 [4] | EC50 [6] | Structure (SMILES) | also measured
19 | – | 4630 nM | CCCCC(=O)NC1(C(=O)NC(Cc2ccccc2)C(=O)N[C@@H](CCCN=C(N)N)C(=O)N[C@@H](Cc2c[nH]c3ccccc23)C(=O)NCC(N)=O)CCc2cc(Br)ccc2C1 (single isomer, unassigned; form 2) [listing 1 of 2 here] | –
20 | 130 nM | 890 nM | CCCCC(=O)NC1(C(=O)N[C@H](Cc2ccccc2)C(=O)N[C@@H](CCCNC(=N)N)C(=O)N[C@@H](Cc2c[nH]c3ccccc23)C(=O)NCC(N)=O)CCc2c(Cl)cccc2C1 (single isomer, unassigned; isomer 2) | –
21 | 120 nM | 990 nM | CCCCC(=O)NC1(C(=O)NC(Cc2ccccc2)C(=O)N[C@@H](CCCNC(=N)N)C(=O)N[C@@H](Cc2c[nH]c3ccccc23)C(=O)NCC(N)=O)CCc2c(cccc2OCC)C1 (single isomer, unassigned) | –
22 | 24 nM | 195 nM | CCCCC(=O)NC1(C(=O)NC(Cc2ccccc2)C(=O)N[C@@H](CCCNC(=N)N)C(=O)N[C@@H](Cc2c[nH]c3ccccc23)C(=O)NCC(N)=O)CCc2c(CC)cccc2C1 (single isomer, unassigned) | –
23 | 130 nM | 680 nM | CCCCC(=O)NC1(C(=O)NC(Cc2ccccc2)C(=O)N[C@@H](CCCNC(=N)N)C(=O)N[C@@H](Cc2c[nH]c3ccccc23)C(=O)NCC(N)=O)CCc2c(cccc2OC(C)C)C1 (single isomer, unassigned) | –
24 | 20 nM | 10 nM | CCCC(=O)N[C@@H](Cc1cnc[nH]1)C(=O)N[C@H](Cc1ccccc1)C(=O)N[C@@H](CCCNC(=N)N)C(=O)N[C@@H](Cc1c[nH]c2ccccc12)C(=O)NCC(N)=O | IC50 [3]: 580 nM; IC50 [10]: 4000 nM; IC50 [7]: 150 nM; IC50 [11]: 13300 nM; EC50 [8]: 10 nM
25 | 1000 nM | 1950 nM | CCCCC(=O)N[C@]1(C(=O)N[C@H](Cc2ccccc2)C(=O)N[C@@H](CCCN=C(N)N)C(=O)N[C@@H](Cc2c[nH]c3ccccc23)C(=O)NCC(N)=O)CCc2ccccc2C1 (stereo in doubt; form 2) | –
26 | 600 nM | 1400 nM | CCCCC(=O)NC1(C(=O)NC(Cc2ccccc2)C(=O)N[C@@H](CCCNC(=N)N)C(=O)N[C@@H](Cc2c[nH]c3ccccc23)C(=O)NCC(N)=O)CCc2c(Cl)cccc2C1 (single isomer, unassigned) | –
27 | 180 nM | 230 nM | CCCC(=O)N[C@@H](C)C(=O)NC(Cc1ccccc1)C(=O)N[C@@H](CCCN=C(N)N)C(=O)N[C@@H](Cc1c[nH]c2ccccc12)C(=O)NCC(N)=O (single isomer, unassigned) | –
28 | 33 nM | – | CCCCC(=O)NC1(C(=O)NC(Cc2ccccc2)C(=O)N[C@@H](CCCN=C(N)N)C(=O)N[C@@H](Cc2c[nH]c3ccccc23)C(=O)NCC(N)=O)CCc2c(Br)cccc2C1 (single isomer, unassigned) | Accumulation [13]: 75%; IC50 [3]: 4900 nM; inhibition [12]: 75%; Accumulation [1]: 0%; IC50 [7]: 200 nM; Accumulation [2]: 0%
29 | – | 3380 nM | CCCCC(=O)NC1(C(=O)NC(Cc2ccccc2)C(=O)N[C@@H](CCCN=C(N)N)C(=O)N[C@@H](Cc2c[nH]c3ccccc23)C(=O)NCC(N)=O)CCc2cc(Br)ccc2C1 (single isomer, unassigned; form 1) [listing 2 of 2 here] | –
